Values of other authors as cited in patent US20120177733A1 (priority 2005, published 2012).

Experiments:
[1] = not given; remark: listed apart in the source

## CCOC(=O)C1=C(COCCN)NC(C)=C(C(=O)OC)C1c1ccccc1Cl (stereo not shown) [Amlodipine besylate, 3-ethyl-5-methyl-2(2-aminoethoxymethyl)-4-(2-chlrorophenyl)-1,4-dihydro-6-methyl-3,5-pyridinedicarboxylate benzenesulphonate]
other
  absolute (oral) bioavailability: 64-90%
[1]
  solubility in water: slightly soluble

## CCCCC(=O)N(Cc1ccc(-c2ccccc2-c2nnn[nH]2)cc1)[C@H](C(=O)O)C(C)C [valsartan, (S)—N-valeryl-N-{[2′-(1H-tetrazole-5-yl)-biphenyl-4-yl]-methyl}-valine]
other
  absolute (oral) bioavailability: about 25%
  absolute oral bioavailability, wide range: 10-35%
